Legend:
[1] = tested on: MOOVA (Monochoria); assay: Preemergence weed control under flooded paddy conditions; assay type: in vivo, Monochoria vaginalis; conditions: rated 3-4 weeks after treatment
Summary of the method: (§1)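 Greenhouse paddy assay. Acetone/water (50/50 v/v) solutions dosed into flood water, equivalent to about 0.0313 to 0.500 kg/ha active ingredient, over seeds planted 0.5 cm deep in silt loam. Score: 0-9 visual, based on stand, vigor, malformation, size and chlorosis, 3 to 4 weeks after treatment.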

[2] = tested on: ABUTH (Velvetleaf); assay: Postemergence herbicidal evaluation; assay type: in vivo, Abutilon theophrasti; conditions: postemergence
Summary of the method: (§2)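 Each compound, dispersed in an acetone/water mix (50/50) carrying 0.5% TWEEN 20, is nozzle-sprayed at 40 psi on approximately two-week-old seedlings at about 0.0156–0.500 kg/ha. Plants are assessed 4–5 weeks afterward on a 0–9 scale relative to control; duplicate tests are averaged.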

[3] = tested on: ECHCG (Barnyardgrass); assay: Postemergence herbicidal evaluation; assay type: in vivo, Echinochloa crus-galli; conditions: postemergence
Summary of the method: as §2

[4] = tested on: TRZAWR (Wheat, Winter, cv Riband); assay: Postemergence herbicidal evaluation; assay type: in vivo, Triticum aestivum; conditions: postemergence
Summary of the method: as §2

[5] = tested on: CASOB (Sicklepod); assay: Preemergence herbicidal evaluation; assay type: in vivo, Cassia obtusifolia; conditions: rated 4-5 weeks after treatment
Summary of the method: (§3)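 Scores use a 0–9 visual scale covering stand, vigor, malformation, size and chlorosis relative to controls, rated four to five weeks after treatment. Before emergence, soil-planted seeds were sprayed with compound in aqueous acetone at roughly 0.0156–0.500 kg/ha and held in the greenhouse.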

[6] = tested on: ORYSAT (Rice, Tebonnet); assay: Postemergence herbicidal evaluation; assay type: in vivo, Oryza sativa, (L.) Tebonnet; conditions: postemergence
Summary of the method: as §2

[7] = tested on: SETVI (Foxtail, Green); assay: Preemergence herbicidal evaluation; assay type: in vivo, Setaria viridis; conditions: rated 4-5 weeks after treatment
Summary of the method: as §3

[8] = tested on: AMBEL (Ragweed, Common); assay: Postemergence herbicidal evaluation; assay type: in vivo, Ambrosia artemisifolia; conditions: postemergence
Summary of the method: as §2

[9] = tested on: ABUTH (Velvetleaf); assay: Preemergence herbicidal evaluation; assay type: in vivo, Abutilon theophrasti; conditions: rated 4-5 weeks after treatment
Summary of the method: as §3

[10] = tested on: SAGPY (Arrowhead (Pygmaea)); assay: Preemergence weed control under flooded paddy conditions; assay type: in vivo, Sagittaria pygmaea; conditions: rated 3-4 weeks after treatment
Summary of the method: as §1

[11] = tested on: SETVI (Foxtail, Green); assay: Postemergence herbicidal evaluation; assay type: in vivo, Setaria viridis; conditions: postemergence
Summary of the method: as §2

[12] = tested on: GLXMAW (Soybean, Williams); assay: Postemergence herbicidal evaluation; assay type: in vivo, Glycine max, (L.) Merr. cv Williams; conditions: postemergence
Summary of the method: as §2

## CCOC(=O)CN1C(=O)C(Cl)SC1=Nc1cc(-n2c(=O)cc(C(F)(F)F)n(C)c2=O)c(F)cc1Cl (stereo not drawn) [Compound 126, Ethyl 5-chloro-2-{{2-chloro-5-[3,6-dihydro-3-methyl-2,6-dioxo-4-(trifluoromethyl)-1(2H)-pyrimidinyl]-4-fluorophenyl}imino}-4-oxo-3-thiazolidineacetate]
[1]; 0.0313 kg/ha
  herbicidal effect rating, MOOVA: 3.0
[1]; 0.0625 kg/ha
  herbicidal effect rating, MOOVA: 4.0
[1]; 0.1250 kg/ha
  herbicidal effect rating, MOOVA: 6.0
[1]; 0.2500 kg/ha
  herbicidal effect rating, MOOVA: 7.0
[2]; rate 0.0156 kg/ha
  herbicidal rating ABUTH: 5.0
[2]; rate 0.0313 kg/ha
  herbicidal rating ABUTH: 9.0
[2]; rate 0.0625 kg/ha
  herbicidal rating ABUTH: 9.0
[2]; rate 0.1250 kg/ha
  herbicidal rating ABUTH: 9.0
[3]; rate 0.0156 kg/ha
  herbicidal rating ECHCG: 0.0
[3]; rate 0.0313 kg/ha
  herbicidal rating ECHCG: 0.0
[3]; rate 0.0625 kg/ha
  herbicidal rating ECHCG: 0.0
[3]; rate 0.1250 kg/ha
  herbicidal rating ECHCG: 0.0
[4]; rate 0.0156 kg/ha
  herbicidal rating TRZAWR: 2.0
[4]; rate 0.0313 kg/ha
  herbicidal rating TRZAWR: 2.5
[4]; rate 0.0625 kg/ha
  herbicidal rating TRZAWR: 3.0
[4]; rate 0.1250 kg/ha
  herbicidal rating TRZAWR: 3.5
[5]; rate 0.0625 kg/ha
  Preemergence herbicidal rating CASOB: 0.0
[5]; rate 0.1250 kg/ha
  Preemergence herbicidal rating CASOB: 0.0
[5]; rate 0.2500 kg/ha
  Preemergence herbicidal rating CASOB: 0.0
[5]; rate 0.5000 kg/ha
  Preemergence herbicidal rating CASOB: 3.0
[6]; rate 0.0156 kg/ha
  herbicidal rating ORYSAT: 0.0
[6]; rate 0.0313 kg/ha
  herbicidal rating ORYSAT: 0.5
[6]; rate 0.0625 kg/ha
  herbicidal rating ORYSAT: 0.5
[6]; rate 0.1250 kg/ha
  herbicidal rating ORYSAT: 1.0
[7]; rate 0.0625 kg/ha
  Preemergence herbicidal rating SETVI: 0.0
[7]; rate 0.1250 kg/ha
  Preemergence herbicidal rating SETVI: 0.0
[7]; rate 0.2500 kg/ha
  Preemergence herbicidal rating SETVI: 3.0
[7]; rate 0.5000 kg/ha
  Preemergence herbicidal rating SETVI: 9.0
[8]; rate 0.0156 kg/ha
  herbicidal rating AMBEL: 5.0
[8]; rate 0.0313 kg/ha
  herbicidal rating AMBEL: 9.0
[8]; rate 0.0625 kg/ha
  herbicidal rating AMBEL: 9.0
[8]; rate 0.1250 kg/ha
  herbicidal rating AMBEL: 9.0
[9]; rate 0.0625 kg/ha
  Preemergence herbicidal rating ABUTH: 5.0
[9]; rate 0.1250 kg/ha
  Preemergence herbicidal rating ABUTH: 5.0
[9]; rate 0.2500 kg/ha
  Preemergence herbicidal rating ABUTH: 9.0
[9]; rate 0.5000 kg/ha
  Preemergence herbicidal rating ABUTH: 9.0
[10]; 0.0313 kg/ha
  herbicidal effect rating, SAGPY: 0.0
[10]; 0.0625 kg/ha
  herbicidal effect rating, SAGPY: 0.0
[10]; 0.1250 kg/ha
  herbicidal effect rating, SAGPY: 3.0
[10]; 0.2500 kg/ha
  herbicidal effect rating, SAGPY: 3.0
[11]; rate 0.0156 kg/ha
  herbicidal rating SETVI: 0.0
[11]; rate 0.0313 kg/ha
  herbicidal rating SETVI: 3.0
[11]; rate 0.0625 kg/ha
  herbicidal rating SETVI: 3.0
[11]; rate 0.1250 kg/ha
  herbicidal rating SETVI: 9.0
[12]; rate 0.0156 kg/ha
  herbicidal rating GLXMAW: 5.0
[12]; rate 0.0313 kg/ha
  herbicidal rating GLXMAW: 5.5
[12]; rate 0.0625 kg/ha
  herbicidal rating GLXMAW: 6.0
[12]; rate 0.1250 kg/ha
  herbicidal rating GLXMAW: 7.0
